Laboratory results as given in ChEMBL document CHEMBL4742401, “Cyclin-dependent kinase inhibitors and methods of use” (2019).

Columns and labels:
[1] = molecular target: T1, Cyclin-dependent kinase 8 (Homo sapiens, UniProt P49336); experiment: Inhibition of CDK8 (unknown origin) by competitive kinase binding based Lantha-screen Eu kinase binding assay
[2] = molecular target: T1, Cyclin-dependent kinase 8; experiment: Inhibition of CDK8 in human HepG2 cells assessed as reduction in IFNgamma-induced STATl S727 phosphorylation incubated for 18 hrs by Western blot analysis; assay type: cell-based
[3] = molecular target: T2, Serine/threonine-protein kinase Nek1 (Homo sapiens, UniProt Q96PY6); experiment: Inhibition of NEK1 (unknown origin)
T2 sequence (Q96PY6 whole entry): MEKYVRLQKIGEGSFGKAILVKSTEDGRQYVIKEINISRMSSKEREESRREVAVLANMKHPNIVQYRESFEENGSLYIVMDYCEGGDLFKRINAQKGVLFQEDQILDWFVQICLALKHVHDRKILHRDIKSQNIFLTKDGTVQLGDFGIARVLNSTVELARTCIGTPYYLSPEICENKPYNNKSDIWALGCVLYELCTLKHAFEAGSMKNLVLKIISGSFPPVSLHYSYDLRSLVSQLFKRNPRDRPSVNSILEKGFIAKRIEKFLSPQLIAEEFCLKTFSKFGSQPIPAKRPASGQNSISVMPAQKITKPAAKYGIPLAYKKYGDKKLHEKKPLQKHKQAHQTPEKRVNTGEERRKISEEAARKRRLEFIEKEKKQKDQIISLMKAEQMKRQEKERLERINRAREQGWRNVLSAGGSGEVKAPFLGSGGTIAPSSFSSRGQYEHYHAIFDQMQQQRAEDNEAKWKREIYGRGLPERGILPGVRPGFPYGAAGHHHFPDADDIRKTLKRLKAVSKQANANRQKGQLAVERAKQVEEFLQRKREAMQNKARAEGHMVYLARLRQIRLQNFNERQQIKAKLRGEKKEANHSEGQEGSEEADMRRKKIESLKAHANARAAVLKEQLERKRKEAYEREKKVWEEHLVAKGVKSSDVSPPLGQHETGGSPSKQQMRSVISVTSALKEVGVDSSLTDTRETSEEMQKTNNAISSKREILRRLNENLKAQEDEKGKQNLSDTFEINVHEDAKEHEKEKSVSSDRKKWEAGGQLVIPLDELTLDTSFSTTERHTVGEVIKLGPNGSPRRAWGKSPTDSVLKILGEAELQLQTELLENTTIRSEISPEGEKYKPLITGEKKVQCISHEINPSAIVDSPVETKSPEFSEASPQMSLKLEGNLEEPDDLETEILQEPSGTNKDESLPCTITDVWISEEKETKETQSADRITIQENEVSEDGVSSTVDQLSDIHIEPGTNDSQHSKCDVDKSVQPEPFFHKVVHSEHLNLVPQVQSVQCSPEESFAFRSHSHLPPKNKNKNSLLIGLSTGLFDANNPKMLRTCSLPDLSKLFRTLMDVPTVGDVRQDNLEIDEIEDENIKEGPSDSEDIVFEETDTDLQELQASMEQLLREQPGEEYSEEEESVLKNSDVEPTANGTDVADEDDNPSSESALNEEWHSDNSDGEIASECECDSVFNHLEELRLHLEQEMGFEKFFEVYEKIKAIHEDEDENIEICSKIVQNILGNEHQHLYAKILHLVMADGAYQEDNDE

T1 sequence (P49336 whole entry): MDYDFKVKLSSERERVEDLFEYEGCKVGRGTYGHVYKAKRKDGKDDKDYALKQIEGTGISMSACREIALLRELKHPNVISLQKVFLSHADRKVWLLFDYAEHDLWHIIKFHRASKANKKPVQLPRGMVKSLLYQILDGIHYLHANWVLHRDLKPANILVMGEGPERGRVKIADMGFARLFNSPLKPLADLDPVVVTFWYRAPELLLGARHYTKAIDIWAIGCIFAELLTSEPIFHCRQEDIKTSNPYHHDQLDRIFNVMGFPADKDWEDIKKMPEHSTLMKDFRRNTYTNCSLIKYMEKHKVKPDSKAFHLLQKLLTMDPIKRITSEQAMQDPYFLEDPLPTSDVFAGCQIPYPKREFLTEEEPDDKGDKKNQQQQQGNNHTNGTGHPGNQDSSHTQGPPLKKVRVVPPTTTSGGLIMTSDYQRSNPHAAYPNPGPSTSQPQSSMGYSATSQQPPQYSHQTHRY

SMILES	IC50 [1]	inhibition [2]	IC50 [3]
C[C@]12CC[C@H](O)CC1=CC[C@@H]1[C@@H]2CC[C@]2(C)C(c3ccc4c(N)n[nH]c4c3)=CC[C@@H]12	701 nM	–	–
C[C@]12CC[C@H]3[C@@H](CC=C4C[C@@H](O)CC[C@@]43C)[C@@H]1CC[C@@H]2c1ccc2cnncc2c1	≥ 6000 nM	–	–
C[C@]12CC[C@H]3[C@@H](CC=C4C[C@@H](O)CC[C@@]43C)[C@@H]1CC[C@@H]2c1ccc2nc(N)ncc2c1	101 nM	–	–
CN[C@H]1CC[C@@]2(C)[C@@H](CC[C@@H]3[C@@H]2CC[C@]2(C)[C@@H](c4ccc5ccncc5c4)CC[C@@H]32)C1	701 nM	–	–
C[C@]12CC[C@H](N3CCOCC3)C[C@@H]1CC[C@@H]1[C@@H]2CC[C@]2(C)[C@@H](c3ccc4ccncc4c3)CC[C@@H]12	101 nM	–	–
CN(C)[C@H]1CC[C@@]2(C)[C@@H](CC[C@@H]3[C@@H]2CC[C@]2(C)C(c4ccc5ccncc5c4)=CC[C@@H]32)C1	101 nM	–	–
C[C@]12CC[C@H](O)CC1=CC[C@@H]1[C@@H]2CC[C@]2(C)C(c3ccc4[nH]ncc4c3)=CC[C@@H]12	≥ 6000 nM	–	–
CN(C)[C@H]1CC[C@@]2(C)C(=CC[C@H]3[C@@H]4CC[C@H](c5ccc6ccncc6c5)[C@@]4(C)CC[C@@H]32)C1	≤ 100 nM	Dose-dependent effect	> 10000 nM
CC(=O)N(C)[C@H]1CC[C@@]2(C)[C@@H](CC[C@@H]3[C@@H]2CC[C@]2(C)[C@@H](c4ccc5ccncc5c4)CC[C@@H]32)C1	≤ 100 nM	–	–
C[C@]12CC[C@H](O)CC1=CC[C@@H]1[C@@H]2CC[C@]2(C)C(c3ccc4nc(N)ncc4c3)=CC[C@@H]12	2000 nM	–	–
C[C@]12CC[C@H](O)C[C@@H]1CC[C@@H]1[C@@H]2CC[C@]2(C)[C@@H](c3ccc4ccncc4c3)CC[C@@H]12	201 nM	–	–
C[C@]12CC[C@H]3[C@@H](CC=C4C[C@@H](O)CC[C@@]43C)[C@@H]1CC[C@@H]2c1ccc2ccncc2c1	≤ 100 nM	–	–
C[C@]12CC[C@H](O)CC1=CC[C@@H]1[C@@H]2CC[C@]2(C)C(c3ccc4cn[nH]c4c3)=CC[C@@H]12	≥ 6000 nM	–	–
C[C@]12CC[C@H]3[C@@H](CC=C4C[C@@H](O)CC[C@@]43C)[C@@H]1CC[C@@H]2c1ccc2[nH]ncc2c1	≥ 6000 nM	–	–
C[C@]12CC[C@H]3[C@@H](CC=C4C[C@@H](O)CC[C@@]43C)[C@@H]1CC[C@@H]2c1ccc2cnccc2c1	2000 nM	–	–
C[C@]12CC[C@H]3[C@@H](CC=C4C[C@@H](O)CC[C@@]43C)[C@@H]1CC[C@@H]2c1ccc2cn[nH]c2c1	≥ 6000 nM	–	–
CN(C)[C@@H]1CC[C@@]2(C)[C@@H](CC[C@@H]3[C@@H]2CC[C@]2(C)C(c4ccc5ccncc5c4)=CC[C@@H]32)C1	201 nM	–	–
C[C@]12CC[C@H](O)CC1=CC[C@@H]1[C@@H]2CC[C@]2(C)C(c3ccc4cnccc4c3)=CC[C@@H]12	≥ 6000 nM	–	–
C[C@]12CC[C@H](n3ccnn3)C[C@@H]1CC[C@@H]1[C@@H]2CC[C@]2(C)[C@@H](c3ccc4ccncc4c3)CC[C@@H]12	≤ 100 nM	–	–
CN(C)[C@@H]1CC[C@@]2(C)[C@@H](CC[C@@H]3[C@@H]2CC[C@]2(C)[C@@H](c4ccc5ccncc5c4)CC[C@@H]32)C1	≤ 100 nM	–	–
C[C@]12CC[C@H](O)CC1=CC[C@@H]1[C@@H]2CC[C@]2(C)C(c3ccc4ccncc4c3)=CC[C@@H]12	101 nM	–	–
C[C@]12CC[C@H](O)C[C@@H]1CC[C@@H]1[C@@H]2CC[C@]2(C)C(c3ccc4ccncc4c3)=CC[C@@H]12	701 nM	–	–
C[C@]12CC[C@H](O)CC1=CC[C@@H]1[C@@H]2CC[C@]2(C)C(c3ccc4cnncc4c3)=CC[C@@H]12	≥ 6000 nM	–	–
C[C@]12CC[C@H]3[C@@H](CC=C4C[C@@H](O)CC[C@@]43C)[C@@H]1CC[C@@H]2c1ccc2c(N)n[nH]c2c1	301 nM	–	–
CN(C)[C@H]1CC[C@@]2(C)[C@@H](CC[C@@H]3[C@@H]2CC[C@]2(C)[C@@H](c4ccc5ccncc5c4)CC[C@@H]32)C1	≤ 100 nM	–	–
